Measurements reported in patent US11339130B1 (Blade Therapeutics, Inc., priority 2016, dated 2022).

Tests used:
[1] = system: Calpain activity in SH-SY5Y cells (SBDP-150); test: SH-SY5Y Spectrin western blot assay (SBDP-150 breakdown product, A23187-induced); type: cell-based; conditions: Homo sapiens; SH-SY5Y cells, A23187-induced SBDP-150, western blot; read-out: SH-SY5Y Spectrin IC50
Human Calpain 9/NS1 = biological target: T1, Human Calpain 9/NS1 (Homo sapiens, UniProt O14815); test: Calpain inhibition continuous fluorescence (FRET) assay, Human Calpain 9/NS1; type: biochemical; conditions: read-out: Human Calpain 9/NS1 IC50
T1 sequence (O14815 1-690): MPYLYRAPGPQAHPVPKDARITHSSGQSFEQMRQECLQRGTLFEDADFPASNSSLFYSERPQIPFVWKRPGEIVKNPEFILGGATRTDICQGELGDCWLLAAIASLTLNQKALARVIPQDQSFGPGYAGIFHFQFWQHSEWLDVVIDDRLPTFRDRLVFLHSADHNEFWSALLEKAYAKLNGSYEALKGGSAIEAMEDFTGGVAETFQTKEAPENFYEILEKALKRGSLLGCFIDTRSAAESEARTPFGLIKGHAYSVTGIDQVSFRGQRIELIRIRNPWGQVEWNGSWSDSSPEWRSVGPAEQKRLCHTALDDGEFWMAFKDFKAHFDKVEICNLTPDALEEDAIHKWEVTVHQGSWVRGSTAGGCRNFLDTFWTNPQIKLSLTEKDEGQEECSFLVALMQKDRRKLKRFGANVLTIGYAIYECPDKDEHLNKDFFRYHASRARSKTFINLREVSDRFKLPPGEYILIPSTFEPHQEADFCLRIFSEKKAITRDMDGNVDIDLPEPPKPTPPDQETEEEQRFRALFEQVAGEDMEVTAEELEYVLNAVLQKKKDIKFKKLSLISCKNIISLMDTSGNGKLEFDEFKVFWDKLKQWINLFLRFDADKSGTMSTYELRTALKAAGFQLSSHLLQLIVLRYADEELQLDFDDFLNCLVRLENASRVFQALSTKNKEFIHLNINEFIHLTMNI
T1 sequence (P04632 1-268 partner): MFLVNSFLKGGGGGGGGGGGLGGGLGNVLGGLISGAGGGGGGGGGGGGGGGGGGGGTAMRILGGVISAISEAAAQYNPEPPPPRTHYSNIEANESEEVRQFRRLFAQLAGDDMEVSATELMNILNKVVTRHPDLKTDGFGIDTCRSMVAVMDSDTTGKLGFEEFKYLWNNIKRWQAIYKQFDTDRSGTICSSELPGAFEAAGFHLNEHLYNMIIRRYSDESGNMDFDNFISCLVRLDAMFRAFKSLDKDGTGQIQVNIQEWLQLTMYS
How it was run: (§1)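 Buffer 50 mM Tris pH 7.5/100 mM NaCl/1 mM DTT; enzyme + cpd preinc 25C; start w/ FRET substrate + CaCl2; kinetic 490/520 nm, 10 min; slopes 1-5 min; 4-PL IC50.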

Human Calpain 2/NS1 = biological target: T2, Human Calpain 2/NS1 (Homo sapiens, UniProt P17655); test: Calpain inhibition continuous fluorescence (FRET) assay, Human Calpain 2/NS1; type: biochemical; conditions: read-out: Human Calpain 2/NS1 IC50
T2 sequence (P17655 1-700): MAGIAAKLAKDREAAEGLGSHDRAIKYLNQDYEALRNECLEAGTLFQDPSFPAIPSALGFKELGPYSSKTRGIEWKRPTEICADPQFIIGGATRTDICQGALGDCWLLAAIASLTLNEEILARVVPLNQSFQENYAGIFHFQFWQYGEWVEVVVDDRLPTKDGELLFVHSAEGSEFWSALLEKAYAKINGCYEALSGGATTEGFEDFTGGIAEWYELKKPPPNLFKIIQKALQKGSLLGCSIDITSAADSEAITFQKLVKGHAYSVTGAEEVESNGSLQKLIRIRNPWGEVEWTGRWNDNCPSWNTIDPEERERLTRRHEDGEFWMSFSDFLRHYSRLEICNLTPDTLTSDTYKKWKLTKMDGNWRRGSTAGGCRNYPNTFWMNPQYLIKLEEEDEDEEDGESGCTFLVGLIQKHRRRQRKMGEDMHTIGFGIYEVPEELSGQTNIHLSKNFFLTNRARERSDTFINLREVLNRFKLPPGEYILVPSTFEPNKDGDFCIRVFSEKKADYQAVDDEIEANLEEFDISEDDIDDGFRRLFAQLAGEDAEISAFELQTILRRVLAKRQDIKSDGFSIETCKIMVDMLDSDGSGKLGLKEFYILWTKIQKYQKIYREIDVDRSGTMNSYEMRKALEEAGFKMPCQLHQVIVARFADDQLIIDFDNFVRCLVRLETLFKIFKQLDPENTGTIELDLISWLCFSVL
T2 sequence (P04632 1-268 partner): T1 sequence (P04632 1-268 partner)
How it was run: as §1

[2] = system: Calpain activity in SH-SY5Y cells; test: SH-SY5Y + AMC fluorescence assay (Suc-LLVY-AMC substrate); type: cell-based; conditions: read-out: SH-SY5Y + AMC IC50
Human Calpain 1/NS1 = biological target: T3, Human Calpain 1/NS1 (Homo sapiens, UniProt P07384); test: Calpain inhibition continuous fluorescence (FRET) assay, Human Calpain 1/NS1; type: biochemical; conditions: read-out: Human Calpain 1/NS1 IC50
T3 sequence (P07384 1-714): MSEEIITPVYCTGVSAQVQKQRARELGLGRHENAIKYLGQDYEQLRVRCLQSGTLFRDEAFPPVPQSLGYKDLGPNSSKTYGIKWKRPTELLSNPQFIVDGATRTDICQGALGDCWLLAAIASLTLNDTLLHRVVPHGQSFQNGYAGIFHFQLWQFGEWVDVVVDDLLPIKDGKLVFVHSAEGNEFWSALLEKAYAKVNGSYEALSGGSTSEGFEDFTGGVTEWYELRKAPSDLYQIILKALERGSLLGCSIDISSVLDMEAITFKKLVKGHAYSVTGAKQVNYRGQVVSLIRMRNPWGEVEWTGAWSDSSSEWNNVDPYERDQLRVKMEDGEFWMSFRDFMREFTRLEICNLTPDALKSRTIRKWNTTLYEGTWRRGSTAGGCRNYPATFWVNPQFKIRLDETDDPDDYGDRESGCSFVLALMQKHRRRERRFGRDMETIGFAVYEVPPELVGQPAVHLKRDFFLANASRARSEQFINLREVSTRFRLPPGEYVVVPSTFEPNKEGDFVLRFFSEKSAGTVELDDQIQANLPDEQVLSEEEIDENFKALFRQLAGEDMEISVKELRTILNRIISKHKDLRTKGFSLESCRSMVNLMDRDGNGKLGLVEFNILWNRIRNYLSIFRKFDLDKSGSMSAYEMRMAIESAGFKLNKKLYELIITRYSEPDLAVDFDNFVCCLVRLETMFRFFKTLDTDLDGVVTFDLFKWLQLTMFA
T3 sequence (P04632 1-268 partner): T1 sequence (P04632 1-268 partner)
How it was run: as §1

SMILES | IC50 [1] | IC50 (Human Calpain 9/NS1) | IC50 (Human Calpain 2/NS1) | IC50 [2] | IC50 (Human Calpain 1/NS1)
Cc1cc(C(=O)NC(C=O)Cc2ccccc2)n(-c2ccc(C(F)(F)F)cn2)n1 (stereo not shown) [Compound 399, 3-methyl-N-(1-oxo-3-phenylpropan-2-yl)-1-(5-(trifluoromethyl)pyridin-2-yl)-1H-pyrazole-5-carboxamide] | > 25 µM | 3 to 10 µM | < 3 µM | > 25 µM | < 3 µM
Cc1cc(C(=O)NC(C=O)Cc2ccccc2)n(-c2cccc(COCc3ccccc3)c2)n1 (stereo not shown) [Compound 400, 1-(3-((benzyloxy)methyl)phenyl)-3-methyl-N-(1-oxo-3-phenylpropan-2-yl)-1H-pyrazole-5-carboxamide] | > 25 µM | < 3 µM | < 3 µM | > 25 µM | < 3 µM
O=CC(Cc1ccccc1)NC(=O)c1nsnc1-c1ccccc1 (stereo not shown) [Compound 401, N-(1-oxo-3-phenylpropan-2-yl)-4-phenyl-1,2,5-thiadiazole-3-carboxamide] | < 10 µM | < 3 µM | < 3 µM | > 25 µM | < 3 µM
Cc1nc(-c2ccccc2F)c(C(=O)NC(C=O)Cc2ccccc2)o1 (stereo not shown) [Compound 402, 4-(2-fluorophenyl)-2-methyl-N-(1-oxo-3-phenylpropan-2-yl)oxazole-5-carboxamide] | 10 to 25 µM | < 3 µM | < 3 µM | > 25 µM | < 3 µM
COc1cccc(-c2nn(C)cc2C(=O)NC(Cc2ccccc2)C(=O)C(N)=O)c1 (stereo not shown) [Compound 407, N-(4-amino-3,4-dioxo-1-phenylbutan-2-yl)-3-(3-methoxyphenyl)-1-methyl-1H-pyrazole-4-carboxamide] | 10 to 25 µM | < 3 µM | < 3 µM | 10 to 25 µM | < 3 µM
Cn1cc(C(=O)NC(Cc2ccccc2)C(=O)C(N)=O)c(Cn2ncc3cnccc32)n1 (stereo not shown) [Compound 408, 3-((1H-pyrazolo[4,3-c]pyridin-1-yl)methyl)-N-(4-amino-3,4-dioxo-1-phenylbutan-2-yl)-1-methyl-1H-pyrazole-4-carboxamide] | 10 to 25 µM | > 10 µM | 3 to 10 µM | < 10 µM | > 10 µM
N#Cc1ccc(-c2nn(C3CC3)cc2C(=O)NC(Cc2ccccc2)C(=O)C(N)=O)cn1 (stereo not shown) [Compound 413, N-(4-amino-3,4-dioxo-1-phenylbutan-2-yl)-3-(6-cyanopyridin-3-yl)-1-cyclopropyl-1H-pyrazole-4-carboxamide] | > 25 µM | < 3 µM | < 3 µM | > 25 µM | < 3 µM
CC(C)C[C@H](NC(=O)c1cn(C)nc1-c1ccccc1)C(=O)C(N)=O [Compound 415, (S)—N-(1-amino-5-methyl-1,2-dioxohexan-3-yl)-1-methyl-3-phenyl-1H-pyrazole-4-carboxamide] | > 25 µM | < 3 µM | < 3 µM | > 25 µM | < 3 µM
